Source: ChEMBL document CHEMBL1201862, “PubChem BioAssay data set” (2004)
Activity calls are given as the source filed them.

What was measured:
[1] = biological target: T1, Fatty acid synthase (Homo sapiens, UniProt P49327); assay: FAS thioesterase domain inhibitors, dose response, biochemical, endpoint fluorescence intensity, uHTS hits (AID 624327); type: functional;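 further: fluorescence from hydrolysis of an O-methyl fluorescein acyl ester substrate by the enzyme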
[2] = biological target: T1, Fatty acid synthase; assay: FAS thioesterase domain inhibitors, dose response, biochemical, kinetic fluorescence intensity (AID 624326); type: functional;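 further: rate of fluorescence rise from hydrolysis of a fluorogenic O-methyl fluorescein ester substrate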
[3] = Shn3 3'UTR reporter inhibitors, dose response, cell-based, Clone20 osteoblasts, firefly luciferase, cherry-picked (AID 624132); type: functional;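 further: firefly luciferase luminescence from reporter carrying the Shn3 3'UTR in osteoblasts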
[4] = biological target: Photoreceptor-specific nuclear receptor (Homo sapiens, UniProt Q9Y5X4); type: functional, cell-based;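 further: CHO-S cells with Gal4-NCOR and VP16-NR2E3 two-hybrid luciferase reporter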
Chain of Photoreceptor-specific nuclear receptor (Q9Y5X4 whole entry, the tested form may be a part): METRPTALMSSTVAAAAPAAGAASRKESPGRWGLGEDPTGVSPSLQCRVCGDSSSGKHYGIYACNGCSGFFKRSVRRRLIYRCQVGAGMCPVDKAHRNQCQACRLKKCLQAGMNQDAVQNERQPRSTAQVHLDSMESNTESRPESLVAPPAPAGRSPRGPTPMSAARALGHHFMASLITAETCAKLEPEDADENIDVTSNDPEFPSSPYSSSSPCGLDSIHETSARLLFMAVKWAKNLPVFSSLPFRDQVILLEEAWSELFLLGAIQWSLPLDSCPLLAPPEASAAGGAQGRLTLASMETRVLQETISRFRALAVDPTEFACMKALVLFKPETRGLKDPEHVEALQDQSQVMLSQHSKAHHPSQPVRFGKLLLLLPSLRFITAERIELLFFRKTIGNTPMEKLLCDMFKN

[5] = control 3'UTR Renilla luciferase suppression, dose response, counter-screen for Shn3 inhibitor project, cell-based, Clone20-Shn3RL, cherry-picked (AID 624133); type: functional
[6] = HepG2 cell cytotoxicity, dose response, cytotoxicity control for Shn3 inhibitor project, CellTiter-Glo, cherry-picked (AID 624134); type: functional, cell-based
[7] = inhibitors of intracellular T. cruzi replication, confirmation, NIH3T3 host cells, beta-gal luminescence (AID 2044); type: functional, cell-based;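 further: intracellular parasites grown in NIH/3T3 mouse fibroblasts as host cells; luminescent beta-galactosidase reporter signal from transgenic T. cruzi replicating inside host cells; inhibitors lower the luminescence signal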
[8] = cytotoxicity toward NIH3T3 fibroblasts, dose response, counter-screen, cell-based, ATP luminescence, mouse fibroblasts (AID 2010); type: functional;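 further: cells exposed to compound for about 90 hours before reading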
[9] = HeLa cell cytotoxicity, dose response, cytotoxicity control for MgcRacGAP inhibitor project (AID 624300); type: functional
[10] = microbe, parasite or virus in culture; type: functional; conditions: Mycobacterium tuberculosis
[11] = biological target: T2, Ubiquitin-conjugating enzyme E2 N (Homo sapiens, UniProt P61088); type: functional;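 further: Dose-response confirmation in a TR-FRET assay detecting UBC13-driven polyubiquitin chain formation, inhibition measured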
T2 sequence (P61088 whole entry): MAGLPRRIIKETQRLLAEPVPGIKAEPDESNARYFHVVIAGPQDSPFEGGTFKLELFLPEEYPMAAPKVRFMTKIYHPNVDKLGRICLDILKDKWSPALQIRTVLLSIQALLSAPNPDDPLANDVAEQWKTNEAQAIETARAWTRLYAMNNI

[12] = biological target: T3, Rac GTPase-activating protein 1 (Homo sapiens, UniProt Q9H0H5); assay: MgcRacGAP GTPase-activating activity inhibitors, confirmation, biochemical, ADP Hunter fluorescence, primary and confirmatory (AID 624330); type: functional
T3 sequence (Q9H0H5 whole entry): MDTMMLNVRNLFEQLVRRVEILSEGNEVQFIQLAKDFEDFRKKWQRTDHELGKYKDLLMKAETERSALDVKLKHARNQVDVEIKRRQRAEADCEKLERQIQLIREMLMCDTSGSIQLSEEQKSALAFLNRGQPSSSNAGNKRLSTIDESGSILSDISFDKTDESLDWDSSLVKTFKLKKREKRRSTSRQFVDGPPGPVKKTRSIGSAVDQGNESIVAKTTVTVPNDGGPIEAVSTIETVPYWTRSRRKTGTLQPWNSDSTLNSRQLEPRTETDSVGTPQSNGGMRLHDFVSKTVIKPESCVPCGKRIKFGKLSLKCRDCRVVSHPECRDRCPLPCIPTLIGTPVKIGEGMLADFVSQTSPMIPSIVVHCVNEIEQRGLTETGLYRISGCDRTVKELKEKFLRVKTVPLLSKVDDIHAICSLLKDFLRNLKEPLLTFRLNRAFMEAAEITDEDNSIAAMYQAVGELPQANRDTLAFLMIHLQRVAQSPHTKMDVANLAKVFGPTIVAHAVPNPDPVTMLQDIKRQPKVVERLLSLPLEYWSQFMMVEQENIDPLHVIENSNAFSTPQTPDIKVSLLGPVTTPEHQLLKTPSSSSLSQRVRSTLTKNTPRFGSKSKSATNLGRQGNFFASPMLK

[13] = biological target: Beta-lactamase (Salmonella choleraesuis (strain SC-B67), UniProt Q5J463); assay: Epi-absorbance-based counterscreen for selective VIM-2 inhibitors: dose response biochemical high throughput screening assay to identify inhibitors of TEM-1 serine-beta-lactamase.
Chain of Beta-lactamase (Salmonella choleraesuis (strain SC-B67), UniProt Q5J463) (Q5J463 whole entry): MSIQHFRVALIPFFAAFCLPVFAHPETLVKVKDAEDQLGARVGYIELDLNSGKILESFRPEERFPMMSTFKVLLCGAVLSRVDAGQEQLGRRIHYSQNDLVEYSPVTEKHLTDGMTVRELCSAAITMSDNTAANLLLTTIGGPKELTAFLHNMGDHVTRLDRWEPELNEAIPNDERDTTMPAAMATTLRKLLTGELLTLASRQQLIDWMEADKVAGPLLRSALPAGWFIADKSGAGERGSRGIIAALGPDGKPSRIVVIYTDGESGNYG

[14] = biological target: T4, Beta-lactamase (Pseudomonas aeruginosa, UniProt Q79MP6); assay: […] counterscreen for selective VIM-2 inhibitors: dose response biochemical high throughput screening assay to identify inhibitors of IMP-1 metallo-beta-lactamase.
T4 sequence (Q79MP6 whole entry): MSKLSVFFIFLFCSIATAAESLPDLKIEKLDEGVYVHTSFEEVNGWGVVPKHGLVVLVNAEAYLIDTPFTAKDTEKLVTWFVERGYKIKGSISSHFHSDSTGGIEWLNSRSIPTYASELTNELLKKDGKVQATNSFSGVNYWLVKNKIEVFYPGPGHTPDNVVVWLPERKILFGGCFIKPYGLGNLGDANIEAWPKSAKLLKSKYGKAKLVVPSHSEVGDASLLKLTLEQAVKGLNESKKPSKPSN

[15] = biological target: T4, Beta-lactamase; assay: IMP-1 metallo-beta-lactamase inhibitors, dose response, selectivity assay for VIM-2 inhibitor project, biochemical, epi-absorbance (AID 1920)
[16] = biological target: T5, Low molecular weight phosphotyrosine protein phosphatase (Homo sapiens, UniProt P24666); type: functional; conditions: read-out: IC50_Mean
T5 sequence (P24666 whole entry): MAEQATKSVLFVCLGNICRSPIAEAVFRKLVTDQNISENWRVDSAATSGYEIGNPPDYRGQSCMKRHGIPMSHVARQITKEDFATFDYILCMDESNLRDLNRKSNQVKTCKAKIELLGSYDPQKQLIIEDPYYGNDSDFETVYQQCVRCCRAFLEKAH

[17] = biological target: T5, Low molecular weight phosphotyrosine protein phosphatase; type: functional; conditions: read-out: IC50_Mean; remark: listed apart in the source
[18] = biological target: T6, Small ubiquitin-related modifier 1 (Homo sapiens, UniProt P63165); assay: inhibitors of SUMO1 partner interactions, dose response, biochemical, FRET (AID 624383); type: functional; conditions: read-out: IC50_Mean
T6 sequence (P63165 whole entry): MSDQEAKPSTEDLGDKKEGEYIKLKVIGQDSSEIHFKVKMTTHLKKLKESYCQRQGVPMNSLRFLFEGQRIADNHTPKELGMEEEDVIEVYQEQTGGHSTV

[19] = biological target: T6, Small ubiquitin-related modifier 1; assay: inhibitors of SUMO1 peptide binding, dose response, biochemical, fluorescence polarization, uHTS hits (AID 624382); type: functional; conditions: read-out: IC50_Mean
[20] = biological target: DNA (cytosine-5)-methyltransferase 1 (Homo sapiens, UniProt P26358); assay: DNMT1 methyltransferase inhibitors, confirmation, biochemical, fluorescent molecular beacon (AID 602386); type: functional
[21] = biological target: Large T antigen (Simian virus 40, UniProt P03070); type: functional, Betapolyomavirus macacae;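 further: Confirmatory-stage PubChem screen for compounds that inhibit SV40 T antigen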
Chain of Large T antigen (P03070 whole entry): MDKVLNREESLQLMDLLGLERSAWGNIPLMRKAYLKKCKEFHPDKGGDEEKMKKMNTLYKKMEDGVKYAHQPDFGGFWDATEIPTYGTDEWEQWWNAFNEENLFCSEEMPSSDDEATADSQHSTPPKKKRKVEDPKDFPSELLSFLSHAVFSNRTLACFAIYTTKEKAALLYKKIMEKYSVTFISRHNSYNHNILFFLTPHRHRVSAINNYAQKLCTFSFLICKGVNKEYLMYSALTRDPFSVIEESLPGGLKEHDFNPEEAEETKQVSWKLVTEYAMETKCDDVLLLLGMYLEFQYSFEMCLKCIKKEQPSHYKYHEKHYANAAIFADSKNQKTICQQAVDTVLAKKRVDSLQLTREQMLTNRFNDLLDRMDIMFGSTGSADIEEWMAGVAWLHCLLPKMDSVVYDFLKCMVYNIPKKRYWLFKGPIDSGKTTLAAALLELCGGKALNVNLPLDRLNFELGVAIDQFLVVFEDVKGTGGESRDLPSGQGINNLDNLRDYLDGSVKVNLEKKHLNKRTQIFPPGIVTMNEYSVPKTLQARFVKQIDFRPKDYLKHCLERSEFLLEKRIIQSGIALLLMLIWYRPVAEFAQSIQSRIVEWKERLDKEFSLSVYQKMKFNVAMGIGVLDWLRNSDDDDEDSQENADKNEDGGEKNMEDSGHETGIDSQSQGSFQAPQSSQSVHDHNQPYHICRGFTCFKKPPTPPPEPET

[22] = biological target: Induced myeloid leukemia cell differentiation protein Mcl-1 (Homo sapiens, UniProt Q07820); type: functional
Chain of Induced myeloid leukemia cell differentiation protein Mcl-1 (Q07820 whole entry): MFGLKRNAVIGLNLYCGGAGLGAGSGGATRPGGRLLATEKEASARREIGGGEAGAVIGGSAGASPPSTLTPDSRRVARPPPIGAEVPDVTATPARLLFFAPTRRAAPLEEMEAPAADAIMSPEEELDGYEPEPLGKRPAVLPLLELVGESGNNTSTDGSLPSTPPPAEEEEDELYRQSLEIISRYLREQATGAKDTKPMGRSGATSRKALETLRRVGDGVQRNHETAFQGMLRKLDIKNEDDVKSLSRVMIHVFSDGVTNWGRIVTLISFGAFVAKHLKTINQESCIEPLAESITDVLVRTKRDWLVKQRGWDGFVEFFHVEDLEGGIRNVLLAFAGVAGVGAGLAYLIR

[23] = biological target: T7, Histone-lysine N-methyltransferase NSD2 (Homo sapiens, UniProt O96028); type: biochemical
T7 sequence (O96028 whole entry): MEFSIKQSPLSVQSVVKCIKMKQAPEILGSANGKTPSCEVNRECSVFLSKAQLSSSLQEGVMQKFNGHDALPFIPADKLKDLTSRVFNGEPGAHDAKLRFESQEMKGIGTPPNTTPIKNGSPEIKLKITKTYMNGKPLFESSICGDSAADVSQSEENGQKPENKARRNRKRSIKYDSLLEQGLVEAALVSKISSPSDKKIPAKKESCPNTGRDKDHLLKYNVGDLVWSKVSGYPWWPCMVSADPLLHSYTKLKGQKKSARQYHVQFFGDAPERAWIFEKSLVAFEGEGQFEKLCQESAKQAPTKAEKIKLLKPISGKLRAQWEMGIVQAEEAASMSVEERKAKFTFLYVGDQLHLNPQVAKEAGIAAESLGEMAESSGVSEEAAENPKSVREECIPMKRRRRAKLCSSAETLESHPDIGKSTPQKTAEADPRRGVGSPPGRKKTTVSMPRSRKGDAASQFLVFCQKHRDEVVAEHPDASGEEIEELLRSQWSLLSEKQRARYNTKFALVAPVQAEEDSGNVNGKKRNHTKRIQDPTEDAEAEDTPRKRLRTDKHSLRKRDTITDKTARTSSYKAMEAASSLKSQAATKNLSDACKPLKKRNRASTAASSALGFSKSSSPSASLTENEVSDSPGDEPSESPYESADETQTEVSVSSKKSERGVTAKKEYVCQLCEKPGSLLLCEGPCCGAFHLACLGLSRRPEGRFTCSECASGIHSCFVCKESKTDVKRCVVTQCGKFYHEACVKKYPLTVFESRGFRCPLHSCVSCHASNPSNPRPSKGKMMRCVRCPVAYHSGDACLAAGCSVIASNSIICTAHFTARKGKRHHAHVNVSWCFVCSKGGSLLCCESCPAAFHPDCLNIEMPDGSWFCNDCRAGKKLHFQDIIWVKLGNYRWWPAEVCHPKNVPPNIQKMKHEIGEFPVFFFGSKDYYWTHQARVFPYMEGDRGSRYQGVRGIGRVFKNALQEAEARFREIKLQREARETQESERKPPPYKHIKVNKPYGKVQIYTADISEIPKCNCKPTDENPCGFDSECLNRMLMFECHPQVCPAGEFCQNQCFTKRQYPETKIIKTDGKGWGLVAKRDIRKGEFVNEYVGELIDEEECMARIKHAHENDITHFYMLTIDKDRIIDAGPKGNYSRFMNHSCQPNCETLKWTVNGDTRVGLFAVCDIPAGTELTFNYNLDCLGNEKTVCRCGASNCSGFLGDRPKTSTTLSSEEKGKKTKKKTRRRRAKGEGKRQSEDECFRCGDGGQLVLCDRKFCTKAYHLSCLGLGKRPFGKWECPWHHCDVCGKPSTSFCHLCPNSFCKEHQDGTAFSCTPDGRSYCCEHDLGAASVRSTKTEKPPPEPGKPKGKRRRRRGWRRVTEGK

[24] = system: Streptococcus sp. 'group A'; assay: growth inhibition of control SK(-) GAS strain, dose response, counter-screen for streptokinase expression inhibitor project, luminescence, kanamycin, BacTiterGlo, confirmation (AID 1900); type: functional, organism-based
[25] = biological target: T8, Streptokinase A (Streptococcus pyogenes serotype M1, UniProt P10520); assay: S. pyogenes streptokinase expression inhibitors, potency, dose response, plasminogen activation absorbance, OD405 (AID 1914); type: functional, Streptococcus pyogenes M1 GAS;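 further: secreted streptokinase activity via plasminogen activation per viability signal from cell pellet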
T8 sequence (P10520 whole entry): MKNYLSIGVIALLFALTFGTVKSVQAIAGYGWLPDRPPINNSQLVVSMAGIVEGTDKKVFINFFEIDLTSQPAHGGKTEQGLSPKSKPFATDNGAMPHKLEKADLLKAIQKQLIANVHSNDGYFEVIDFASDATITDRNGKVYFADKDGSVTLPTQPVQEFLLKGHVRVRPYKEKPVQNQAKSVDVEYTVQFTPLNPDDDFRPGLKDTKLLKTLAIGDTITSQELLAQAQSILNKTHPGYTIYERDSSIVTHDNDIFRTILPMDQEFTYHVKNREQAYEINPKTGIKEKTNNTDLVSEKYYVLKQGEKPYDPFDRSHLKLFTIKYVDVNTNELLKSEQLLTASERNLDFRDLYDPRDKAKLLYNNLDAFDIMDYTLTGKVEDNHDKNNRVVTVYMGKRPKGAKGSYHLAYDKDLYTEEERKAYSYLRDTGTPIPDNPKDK

[26] = system: Streptococcus; assay: Group A Streptococcus viability loss, dose response, counter-screen for streptokinase expression inhibitor project, luminescence, BacTiterGlo (AID 1915); type: functional, organism-based;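 further: potency for reduction of bacterial viability or growth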

T1 sequence (P49327 whole entry, the tested form may be a part): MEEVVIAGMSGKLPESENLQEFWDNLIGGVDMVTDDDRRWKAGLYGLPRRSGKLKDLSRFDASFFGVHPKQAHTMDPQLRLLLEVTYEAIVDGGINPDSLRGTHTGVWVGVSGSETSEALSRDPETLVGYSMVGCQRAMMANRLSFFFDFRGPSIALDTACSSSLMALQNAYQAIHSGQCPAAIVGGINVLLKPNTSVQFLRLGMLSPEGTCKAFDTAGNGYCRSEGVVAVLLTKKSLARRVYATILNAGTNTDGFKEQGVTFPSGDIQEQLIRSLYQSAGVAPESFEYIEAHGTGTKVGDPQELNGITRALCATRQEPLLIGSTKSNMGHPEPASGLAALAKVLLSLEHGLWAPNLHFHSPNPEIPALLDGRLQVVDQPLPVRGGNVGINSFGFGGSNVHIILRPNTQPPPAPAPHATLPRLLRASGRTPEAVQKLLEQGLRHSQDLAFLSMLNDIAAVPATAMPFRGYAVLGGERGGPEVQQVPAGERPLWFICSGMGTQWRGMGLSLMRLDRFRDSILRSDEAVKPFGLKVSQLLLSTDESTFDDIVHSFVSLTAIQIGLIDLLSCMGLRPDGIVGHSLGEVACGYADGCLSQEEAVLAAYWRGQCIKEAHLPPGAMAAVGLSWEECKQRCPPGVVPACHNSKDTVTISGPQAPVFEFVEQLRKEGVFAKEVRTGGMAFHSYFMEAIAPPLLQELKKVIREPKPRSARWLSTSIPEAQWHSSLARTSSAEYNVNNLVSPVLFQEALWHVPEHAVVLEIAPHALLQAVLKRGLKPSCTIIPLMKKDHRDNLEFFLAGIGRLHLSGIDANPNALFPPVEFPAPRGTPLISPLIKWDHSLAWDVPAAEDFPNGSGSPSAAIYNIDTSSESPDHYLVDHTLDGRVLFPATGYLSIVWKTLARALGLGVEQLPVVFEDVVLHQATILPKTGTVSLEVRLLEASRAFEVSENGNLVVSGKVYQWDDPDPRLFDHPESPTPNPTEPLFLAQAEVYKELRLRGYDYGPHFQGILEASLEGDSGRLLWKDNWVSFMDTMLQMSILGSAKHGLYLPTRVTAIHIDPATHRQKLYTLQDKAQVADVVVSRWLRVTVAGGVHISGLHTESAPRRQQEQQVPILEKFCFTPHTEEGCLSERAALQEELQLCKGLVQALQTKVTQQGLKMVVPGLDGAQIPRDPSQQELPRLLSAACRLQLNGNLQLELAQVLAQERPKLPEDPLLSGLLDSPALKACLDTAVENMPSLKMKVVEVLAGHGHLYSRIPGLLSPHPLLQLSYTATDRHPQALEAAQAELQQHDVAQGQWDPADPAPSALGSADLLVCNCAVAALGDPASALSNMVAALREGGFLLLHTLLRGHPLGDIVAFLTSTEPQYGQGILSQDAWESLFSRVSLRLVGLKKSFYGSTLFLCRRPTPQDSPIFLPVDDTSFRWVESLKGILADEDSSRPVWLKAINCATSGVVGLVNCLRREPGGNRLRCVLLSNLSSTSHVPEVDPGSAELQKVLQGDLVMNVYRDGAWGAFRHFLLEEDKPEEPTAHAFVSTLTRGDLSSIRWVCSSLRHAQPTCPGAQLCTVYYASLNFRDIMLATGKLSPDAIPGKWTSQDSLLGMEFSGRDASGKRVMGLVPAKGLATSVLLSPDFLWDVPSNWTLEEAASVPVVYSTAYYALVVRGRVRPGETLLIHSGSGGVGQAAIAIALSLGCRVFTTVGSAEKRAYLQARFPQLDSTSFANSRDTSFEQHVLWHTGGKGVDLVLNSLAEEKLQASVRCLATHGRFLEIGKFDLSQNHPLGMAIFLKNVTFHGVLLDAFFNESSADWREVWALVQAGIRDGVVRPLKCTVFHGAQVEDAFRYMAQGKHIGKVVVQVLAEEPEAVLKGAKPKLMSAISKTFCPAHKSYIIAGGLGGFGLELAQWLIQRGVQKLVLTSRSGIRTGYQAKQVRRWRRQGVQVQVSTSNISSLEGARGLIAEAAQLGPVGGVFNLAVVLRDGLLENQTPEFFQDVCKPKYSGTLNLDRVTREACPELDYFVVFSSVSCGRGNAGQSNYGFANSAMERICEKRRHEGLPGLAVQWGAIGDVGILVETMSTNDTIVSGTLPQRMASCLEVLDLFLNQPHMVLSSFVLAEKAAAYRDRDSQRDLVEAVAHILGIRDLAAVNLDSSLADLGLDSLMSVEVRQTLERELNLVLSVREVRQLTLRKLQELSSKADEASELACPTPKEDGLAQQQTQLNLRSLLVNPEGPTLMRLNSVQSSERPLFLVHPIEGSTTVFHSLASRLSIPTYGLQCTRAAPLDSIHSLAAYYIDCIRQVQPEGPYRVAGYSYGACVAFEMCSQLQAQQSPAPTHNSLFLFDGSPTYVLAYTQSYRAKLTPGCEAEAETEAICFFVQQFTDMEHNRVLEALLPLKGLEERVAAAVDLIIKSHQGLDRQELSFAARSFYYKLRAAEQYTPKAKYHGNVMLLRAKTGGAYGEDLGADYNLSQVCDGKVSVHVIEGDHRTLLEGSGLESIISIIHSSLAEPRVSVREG

SMILES: CC(C)Oc1ccc(Cc2nnc(S)n2Cc2ccccc2)cc1Cl
- IC50 [1]: 6.4 µM (active)
- IC50 [2]: 6.09 µM (active)

SMILES: O=[N+]([O-])c1ccc(S(=O)(=O)N/N=C/c2ccc3c(c2)OCO3)cc1
- IC50 [1]: 5.55 µM (active)
- IC50 [2]: 5.36 µM (active)

SMILES: NS(=O)(=O)c1ccc(CCNc2nn3c(-c4cccc(OC(F)(F)F)c4)cnc3s2)cc1
- AC50 [3]: 3.93 µM (active)
- IC50 [4]: 6.96 µM (active)
- AC50 [5]: 0.852 µM (active)
- AC50 [6]: 52.5 µM (active)

SMILES: Cc1cc(=O)n2nc(-c3ccc(C(C)(C)C)cc3)cc2[nH]1
- IC50 [1]: 9.51 µM (active)
- EC50 [7]: 0.646 µM (active)
- IC50 [2]: 15 µM (active)
- EC50 [8]: > 60 µM (not active)

SMILES: CCOC(=O)c1c(C)n(-c2ccc(C)cc2)c2ccc(OCC(O)CNCC3CCCO3)cc12 (configuration not stated)
- CC50 [9]: 39.7 µM (active)
- CC50 [10]: 13.2 µM (active)
- EC50 [7]: 1.51 µM (active)
- IC50 [11]: > 20 µM (inactive)
- IC50 [12]: 131 µM (active)
- EC50 [8]: > 60 µM (not active)

SMILES: Cc1c(C)c2ccc(OCC(=O)N3CCC[C@@H]3C(=O)O)c(C)c2oc1=O
- IC50 [13]: > 59.6 µM (inactive)
- IC50 [14]: > 59.6 µM (inactive)
- IC50 [15]: > 59.6 µM (inactive)

SMILES: CC(C)OCCCNc1nc(-c2ccccc2)nc2ccccc12
- IC50 [16]: 22.9 µM (inactive)
- IC50 [17]: 11.7 µM (active)

SMILES: CC(C)C[C@@H](CNCC(=O)[C@H](Cc1ccccc1)NC(=O)c1nc[nH]c1C(=O)N[C@H](CN)CC(C)C)NC(=O)c1[nH]cnc1C(=O)N[C@@H](CC(=O)O)C(=O)O
- IC50 [18]: 20.4 µM (inactive)
- IC50 [19]: > 66.6 µM (inactive)

SMILES: CCCCN1C(=O)/C(=C/C=C/c2ccco2)C(=O)NC1=S
- IC50 [20]: 3.39 µM (active)
- IC50 [21]: 7.95 µM (active)
- IC50 [22]: 2.18 µM (active)
- AC50 [23]: 4.72 µM (active)

SMILES: C#Cc1cccc(Nc2nc(NCc3ccccc3)nc3ccsc23)c1
- IC50 [4]: 7.02 µM (active)

SMILES: CC(=O)Nc1cc(O)c2cccnc2n1
- IC50 [16]: 38.7 µM (inactive)
- IC50 [17]: 25.9 µM (inactive)

SMILES: COc1ccc(-c2csc(NC(=S)NC(=O)c3cccs3)n2)cc1OC
- IC50 [18]: 7.27 µM (active)
- EC50 [24]: 23.4 µM (active)
- EC50 [25]: > 150 µM (not active)
- EC50 [26]: 74.3 µM (active)
- IC50 [19]: > 66.6 µM (inactive)

SMILES: Cc1n[nH]c(C)c1CCCCOc1ccc([N+](=O)[O-])cc1
- IC50 [13]: > 59.6 µM (inactive)
- IC50 [14]: > 59.6 µM (inactive)
- IC50 [15]: > 59.6 µM (inactive)

SMILES: Nc1nc(N)c(Cc2ccc(Cl)cc2Cl)c(N)n1
- IC50 [16]: 11.9 µM (active)
- IC50 [17]: 7.44 µM (active)
